The text below walks through data of US20250163061A1 (Bala Therapeutics, Inc., priority 2021, published 2025).

Assay type in all cases: cell-based
The nature of data set [1]: HEK293 cellular growth inhibition assay (CellTiter-Glo). The following applies: human, HEK293 cells, 7 days of incubation. As to the method:
(§1) HEK293 (Institute of Cytology Russian Academy of Science), MV4-11 (ATCC, CRL-9591), MOLM-13 (AcceGen, ABC-TC517S) were seeded at a density of 500 cells per well (HEK293) and 2000 cells per well (MV4-11, MOLM-13) in a 384-well clear bottom plate (Greiner Cat #781090) in 45 μl total volume of DMEM (PanEco, Cat #C420, Russia) or RPMI (PanEco, Cat #C330, Russia) with 10% FBS (HyClone Cat #SV30160.03). HEK293 were allowed to adhere overnight at 37° C., 5% CO2. 500× compounds solutions in DMSO (Sigma Cat #D2650) were prepared into Cmpnds plate (Diamond Well Plate, Axigen, Cat #P-384-120SQ-C-S) and DMSO only control was included. 1 μl of 500× compounds (Cmpnds plate) was added to 49 μl of culture medium into Dilution plate (Diamond Well Plate, Axigen, Cat #P-384-120SQ-C-S), mixed and then 5 μl of 10× compounds solutions were transferred to cells followed by centrifugation at 100 g for 1 min. Final DMSO concentration was 0.2%. After 3 days of incubation, 10 μl of 1× compounds were added to cells. After 7 days of incubation, 12 μl of CellTiter-Glo (Promega, CAT #G7572) were added to the cells, plate was centrifuged at 100 g for 1 min and luminescence signal was measured using Microplate Reader (CLARIOStar).
A general note: Cellular ATP, detected with luciferase, serves as a proxy for viable cell number.

For another data set, the system named is MOLM-13. The data set is described as follows: MOLM-13 cellular growth inhibition assay (CellTiter-Glo). The following applies: Homo sapiens, 168 h, MOLM-13 cells, 7 days of incubation. The protocol: as §1
Another data set has as its system MV4-11. The experiment in a line: MV4-11 cellular growth inhibition assay (CellTiter-Glo). The following applies: Homo sapiens, 168 h, MV4-11 cells, 7 days of incubation. The protocol:
as §1

A value given as a limit tells only on which side of the number the result lay.

In data set [1], `Cc1c(CN2CCC3(CC2)CN(c2ncnc4ccc(CC(F)(F)F)c(F)c24)C3)ccc2c1cc(C#N)n2CC1CNC(=O)CO1` (stereo not drawn) [Compound 12, 5-[[2-[5-Fluoro-6-(2,2,2-trifluoroethyl)quinazolin-4-yl]-2,7-diazaspiro[3.5]nonan-7-yl]methyl]-4-methyl-1-[(5-oxomorpholin-2-yl)methyl]indole-2-carbonitrile] displayed a CC50 at 7 days not above 2000 nM. The CC50 lay within 500 to 1000 nM with MOLM-13 and 100 to 500 nM in the data set with MV4-11.

`Cc1c(CN2CCC3(CC2)CN(c2ncnc4ccc(CC(F)(F)F)cc24)C3)ccc2c1cc(C#N)n2CCN1CCOCC1` [Compound 97, 4-Methyl-1-(2-morpholin-4-ylethyl)-5-({2-[6-(2,2,2-trifluoroethyl)quinazolin-4-yl]-2,7-diazaspiro[3.5]non-7-yl}methyl)-1H-indole-2-carbonitrile] returned a half-maximal cytotoxic concentration (CC50) at 7 days in data set [1] of 2000 to 5000 nM. Moreover, the values for the CC50 in the data set on MOLM-13 and in the data set on MV4-11 were 1000 to 5000 nM and 500 to 1000 nM, respectively.

On to `Cc1c(CN2CCC3(CC2)CN(c2ncnc4ccc(CC(F)(F)F)cc24)C3)ccc2c1cc(C#N)n2CC1CNC(=O)C(C)O1` (stereo not drawn) [Compound 7, 4-Methyl-1-[(6-methyl-5-oxo-morpholin-2-yl)methyl]-5-[[2-[6-(2,2,2-trifluoroethyl)quinazolin-4-yl]-2,7-diazaspiro[3.5]nonan-7-yl]methyl]indole-2-carbonitrile], for which the CC50 at 7 days in data set [1] lay within 2000 to 5000 nM. Further, the results for the CC50 in the data set with MOLM-13 and with MV4-11 were 100 to 500 nM and not above 100 nM, respectively.

`CC(=O)NC12CC(Cn3c(C#N)cc4c(C)c(CN5CCC6(CC5)CN(c5ncnc7ccc(CC(F)(F)F)cc57)C6)ccc43)(C1)C2` [Compound 59, N-[3-[[2-Cyano-4-methyl-5-[[2-[6-(2,2,2-trifluoroethyl)quinazolin-4-yl]-2,7-diazaspiro[3.5]nonan-7-yl]methyl]indol-1-yl]methyl]-1-bicyclo[1.1.1]pentanyl]acetamide] came in with a CC50 at 7 days in data set [1] of 2000 to 5000 nM. Further, the CC50 in the data set on MOLM-13 and in the data set with MV4-11 was not above 100 nM throughout.

For `N#Cc1cc2cc(CN3CCC4(CC3)CN(c3ncnc5ccc(CC(F)(F)F)cc35)C4)ccc2[nH]1` [Compound 98], in data set [1], the CC50 at 7 days fell in the range of 5000 to 10000 nM. In addition, the CC50 lay within 1000 to 5000 nM in the data set on MOLM-13 and 500 to 1000 nM with MV4-11.

Take `Cc1c(CN2CCC3(CC2)CN(c2ncnc4ccc(CC(F)(F)F)cc24)C3)ccc2c1cc(C#N)n2CC(C)N1CCNC(=O)C1` (stereo not drawn) [Compound 93, 4-Methyl-1-[2-(3-oxopiperazin-1-yl)propyl]-5-({2-[6-(2,2,2-trifluoroethyl)quinazolin-4-yl]-2,7-diazaspiro[3.5]non-7-yl}methyl)-1H-indole-2-carbonitrile]: the CC50 at 7 days in data set [1] lay in the range of 2000 to 5000 nM. In addition, the results for the CC50 in the data set on MOLM-13 and with MV4-11 were 500 to 1000 nM and not above 100 nM, respectively.

Take `Cc1c(CN2CCC3(CC2)CN(c2ncnc4ccc(CC(F)(F)F)cc24)C3)ccc2c1cc(C#N)n2C(C)CCN1CCN(S(C)(=O)=O)CC1` (stereo not drawn) [Compound 13, 4-Methyl-1-{1-methyl-3-[4-(methylsulfonyl)piperazin-1-yl]propyl}-5-({2-[6-(2,2,2-trifluoroethyl)quinazolin-4-yl]-2,7-diazaspiro[3.5]non-7-yl}methyl)-1H-indole-2-carbonitrile]: the CC50 at 7 days in data set [1] was 5000 to 10000 nM. Besides, the figures for the CC50 in the data set on MOLM-13 and in the data set on MV4-11 were 500 to 1000 nM and not above 100 nM, respectively.

For the compound `Cc1c(CN2CCC3(CC2)CN(c2ncnc4ncc(CC(F)(F)F)cc24)C3)ccc2c1cc(C#N)n2CC(C)N1CCN(S(C)(=O)=O)CC1` (stereo not drawn) [Compound 89, 4-Methyl-1-{2-[4-(methylsulfonyl)piperazin-1-yl]propyl}-5-({2-[6-(2,2,2-trifluoroethyl)pyrido[2,3-d]pyrimidin-4-yl]-2,7-diazaspiro[3.5]non-7-yl}methyl)-1H-indole-2-carbonitrile], in data set [1], the CC50 at 7 days was not above 2000 nM. For the same compound, the values for the CC50 in the data set on MOLM-13 and in the data set with MV4-11 were 500 to 1000 nM and not above 100 nM, respectively.

Take `Cc1c(CN2CCC3(CC2)CN(c2ncnc4ccc(CC(F)(F)F)nc24)C3)ccc2c1cc(C#N)n2CC(C)N1CCN(S(C)(=O)=O)CC1` (stereo not drawn) [Compound 67, 4-Methyl-1-{2-[4-(methylsulfonyl)piperazin-1-yl]propyl}-5-({2-[6-(2,2,2-trifluoroethyl)pyrido[3,2-d]pyrimidin-4-yl]-2,7-diazaspiro[3.5]non-7-yl}methyl)-1H-indole-2-carbonitrile]: the CC50 at 7 days in data set [1] was in the range of 5000 to 10000 nM. In addition, the CC50 in the data set on MOLM-13 and in the data set on MV4-11 was 100 to 500 nM throughout.

The compound `Cc1c(CN2CCC3(CC2)CN(c2nncc4ccc(CC(F)(F)F)cc24)C3)ccc2c1cc(C#N)n2CC(C)N1CCN(S(C)(=O)=O)CC1` (stereo not drawn) [Compound 79, 4-Methyl-1-[2-(4-methylsulfonylpiperazin-1-yl)propyl]-5-[[2-[7-(2,2,2-trifluoroethyl)phthalazin-1-yl]-2,7-diazaspiro[3.5]nonan-7-yl]methyl]indole-2-carbonitrile] displayed a CC50 at 7 days in data set [1] of 5000 to 10000 nM. Further, the CC50 in the data set on MOLM-13 fell in the range of 1000 to 5000 nM; with MV4-11, 500 to 1000 nM.

For the compound `Cc1c(CN2CCC3(CC2)CN(c2ncnc4ncc(CC(F)(F)F)nc24)C3)ccc2c1cc(C#N)n2CC(C)N1CCN(S(C)(=O)=O)CC1` (stereo not drawn) [Compound 42, 4-Methyl-1-[2-(4-methylsulfonylpiperazin-1-yl)propyl]-5-[[2-[6-(2,2,2-trifluoroethyl)pteridin-4-yl]-2,7-diazaspiro[3.5]nonan-7-yl]methyl]indole-2-carbonitrile], in data set [1], the CC50 at 7 days was not above 2000 nM. Also, the CC50 in the data set on MOLM-13 and in the data set on MV4-11 was 100 to 500 nM each time.

The compound `Cc1c(CN2CCC3(CC2)CN(c2ncnc4ccc(CC(F)(F)F)cc24)C3)ccc2c1cc(C#N)n2CC12CC(NS(N)(=O)=O)(C1)C2` [Compound 61, 4-[7-[[2-cyano-4-methyl-1-[[3-(sulfamoylamino)-1-bicyclo[1.1.1]pentanyl]methyl]indol-5-yl]methyl]-2,7-diazaspiro[3.5]nonan-2-yl]-6-(2,2,2-trifluoroethyl)quinazoline] registered a CC50 at 7 days in data set [1] of 5000 to 10000 nM. Further, the values for the half-maximal cytotoxic concentration (CC50) with MOLM-13 and in the data set with MV4-11 were 100 to 500 nM and not above 100 nM, respectively.

In turn, `CNC(=O)NC12CC(Cn3c(C#N)cc4c(C)c(CN5CCC6(CC5)CN(c5ncnc7ccc(CC(F)(F)F)cc57)C6)ccc43)(C1)C2` [Compound 60, 1-[3-[[2-Cyano-4-methyl-5-[[2-[6-(2,2,2-trifluoroethyl)quinazolin-4-yl]-2,7-diazaspiro[3.5]nonan-7-yl]methyl]indol-1-yl]methyl]-1-bicyclo[1.1.1]pentanyl]-3-methyl-urea] displayed a CC50 at 7 days in data set [1] of 2000 to 5000 nM. Also, the CC50 with MOLM-13 and in the data set on MV4-11 was not above 100 nM throughout.

For the compound `Cc1c(CN2CCC3(CC2)CN(c2ncnc4ccc(CC(F)(F)F)cc24)C3)ccc2c1cc(C#N)n2CC1CCC(=O)NC1` (stereo not drawn) [Compound 72, 4-Methyl-1-[(6-oxopiperidin-3-yl)methyl]-5-({2-[6-(2,2,2-trifluoroethyl)quinazolin-4-yl]-2,7-diazaspiro[3.5]non-7-yl}methyl)-1H-indole-2-carbonitrile], in data set [1], the CC50 at 7 days is not above 2000 nM. Further, the results for the CC50 in the data set on MOLM-13 and in the data set with MV4-11 were 500 to 1000 nM and 100 to 500 nM, respectively.

`Cc1c(CN2CCC3(CC2)CN(c2ncnc4cnc(CC(F)(F)F)cc24)C3)ccc2c1cc(C#N)n2CC(C)N1CCN(S(C)(=O)=O)CC1` (stereo not drawn) [Compound 45, 4-Methyl-1-{2-[4-(methylsulfonyl)piperazin-1-yl]propyl}-5-({2-[6-(2,2,2-trifluoroethyl)pyrido[3,4-d]pyrimidin-4-yl]-2,7-diazaspiro[3.5]non-7-yl}methyl)-1H-indole-2-carbonitrile] had a 50% cytotoxic concentration (CC50) at 7 days in data set [1] of 5000 to 10000 nM. For the same compound, the CC50 in the data set on MOLM-13 was 1000 to 5000 nM; in the data set with MV4-11 it was 100 to 500 nM.

In turn, `Cc1c(CN2CCC3(CC2)CN(c2ncnc4ccc(CC(F)(F)F)cc24)C3)ccc2c1cc(C#N)n2C[C@@H](C)N1CCN(S(C)(=O)=O)[C@@H](C)C1` [Compound 27, 4-methyl-1-[(2R)-2-[(3S)-3-methyl-4-methylsulfonyl-piperazin-1-yl]propyl]-5-[[2-[6-(2,2,2-trifluoroethyl)quinazolin-4-yl]-2,7-diazaspiro[3.5]nonan-7-yl]methyl]indole-2-carbonitrile] showed a cytotoxic concentration (CC50) at 7 days in data set [1] of 5000 to 10000 nM. For the same compound, the CC50 in the data set with MOLM-13 is 100 to 500 nM; with MV4-11 it was not above 100 nM.

`Cc1c(CN2CCC3(CC2)CN(c2ncnc4ccc(CC(F)(F)F)cc24)C3)ccc2c1cc(C#N)n2CCCCN1CCN(S(C)(=O)=O)CC1` [Compound 44, 4-Methyl-1-{4-[4-(methylsulfonyl)piperazin-1-yl]butyl}-5-({2-[6-(2,2,2-trifluoroethyl)quinazolin-4-yl]-2,7-diazaspiro[3.5]non-7-yl}methyl)-1H-indole-2-carbonitrile] displayed a CC50 at 7 days in data set [1] of 2000 to 5000 nM. Besides, the CC50 in the data set on MOLM-13 is more than 5000 nM; in the data set on MV4-11, 1000 to 5000 nM.

The CC50 is the concentration that lowers cell viability or growth by half. Higher therefore signals better tolerance by the cells.
